Measurements as given in patent publication US20080009418A1, “Selective Inhibitors” (Alchemia LTD., priority 2004, published 2008).

How the values were obtained:
Human Melanocortin (MC4) = molecular target: T1, Human Melanocortin (MC4) (Homo sapiens, UniProt P32245); assay: Radioligand binding, human melanocortin MC4 membranes, FlashPlate, [125I]-NDP-αMSH; settings: compound at 10 μM; [125I]-NDP-αMSH, human MC4 membranes
T1 construct: purchased Perkin Elmer Biosignal
Outline: (§1)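 Cloned human receptor membranes were coated onto FlashPlate wells and incubated with radioligand and compound (added from a 0.5 mM DMSO daughter plate) for 1 hour at room temperature in the dark. Scintillation counting gave percent inhibition, with DMSO defining total and reference ligand defining non-specific binding.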

Mouse urotensin (mUR2) = molecular target: T2, Mouse urotensin (mUR2) (Mus musculus, UniProt Q8VIH9); assay: Radioligand binding, mouse urotensin mUR2 membranes, FlashPlate, [125I]-Urotensin II; settings: compound at 10 μM; [125I]-Urotensin II, mouse mUR2 membranes
T2 construct: purchased Perkin Elmer Biosignal
T2 sequence (Q8VIH9 1-385): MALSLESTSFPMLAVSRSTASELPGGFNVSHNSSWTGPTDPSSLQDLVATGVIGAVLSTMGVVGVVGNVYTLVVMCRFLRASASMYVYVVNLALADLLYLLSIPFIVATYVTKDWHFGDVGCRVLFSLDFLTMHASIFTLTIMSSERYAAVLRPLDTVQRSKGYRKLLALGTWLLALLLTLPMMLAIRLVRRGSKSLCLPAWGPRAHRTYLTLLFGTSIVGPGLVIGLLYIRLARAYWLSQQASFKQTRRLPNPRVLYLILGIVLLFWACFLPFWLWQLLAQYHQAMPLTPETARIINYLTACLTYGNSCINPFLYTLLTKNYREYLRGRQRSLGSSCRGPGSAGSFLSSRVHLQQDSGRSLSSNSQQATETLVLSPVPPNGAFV
Outline: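 Cloned mouse urotensin (mUR2) receptor membranes from Perkin Elmer Biosignal were immobilized in FlashPlate microplates using a proprietary coating. Each well got 19.5 μl buffer, then 0.5 μl of DMSO, reference ligand, or compound. Adding 5 μl of [125I]-Urotensin II, diluted to 5× final concentration in binding buffer, started binding. Plates were sealed with TopSeal-A and incubated 1 hour at room temperature in the dark. Wells were counted for 30 seconds each on a TopCount after a 60-second delay, and percentage inhibition was calculated.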

Human neurokinin (NK1) = molecular target: T3, Human neurokinin (NK1) (Homo sapiens, UniProt P25103); assay: Radioligand binding, human neurokinin NK1 membranes, filtration, [125I]-Substance P; settings: compound at 10 μM; [125I]-Substance P, human NK1 membranes
T3 construct: purchased Perkin Elmer Biosignal
Outline: (§2)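 Membranes from cloned human receptors were incubated with compound and radioligand for 1 hour at room temperature. Bound ligand was collected on 0.3% PEI-soaked filters, washed with cold 50 mM Tris-HCl pH 7.4, and counted by scintillation. Percent inhibition was computed against DMSO totals and reference-ligand nonspecific wells.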

Human δ-opioid (DOP) = molecular target: T4, Human δ-opioid (DOP) (Homo sapiens, UniProt P41143); assay: Radioligand binding, human δ-opioid (DOP) membranes, FlashPlate, [3H]-Bremazocine; settings: compound at 10 μM; [3H]-Bremazocine, human DOP membranes
T4 construct: purchased Perkin Elmer Biosignal
Outline: as §1

[1] = molecular target: T5, Human neuropeptide Y (NPY-Y1) (Homo sapiens, UniProt P25929); assay: Radioligand binding, human neuropeptide Y NPY-Y1 membranes, FlashPlate, [125I]-PYY; settings: compound at 10 μM; [125I]-PYY, human NPY-Y1 membranes
T5 construct: purchased Perkin Elmer Biosignal
T5 sequence (P25929 1-384): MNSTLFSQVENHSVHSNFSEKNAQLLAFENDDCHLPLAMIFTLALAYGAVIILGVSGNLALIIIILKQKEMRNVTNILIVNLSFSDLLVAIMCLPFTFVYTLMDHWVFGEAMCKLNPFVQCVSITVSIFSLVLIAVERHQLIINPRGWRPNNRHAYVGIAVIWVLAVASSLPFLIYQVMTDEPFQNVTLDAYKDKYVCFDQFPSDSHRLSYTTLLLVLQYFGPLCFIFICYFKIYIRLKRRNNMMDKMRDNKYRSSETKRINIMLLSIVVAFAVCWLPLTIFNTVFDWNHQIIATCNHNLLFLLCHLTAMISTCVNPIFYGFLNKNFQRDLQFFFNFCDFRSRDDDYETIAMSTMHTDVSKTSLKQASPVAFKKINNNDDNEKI
Outline: as §1

Human κ-Opioid (KOP) = molecular target: T6, Human κ-Opioid (KOP) (Homo sapiens, UniProt P41145); assay: Radioligand binding, human κ-opioid (KOP) membranes, filtration, [3H]-Diprenorphine; settings: compound at 10 μM; [3H]-Diprenorphine, human KOP membranes
T6 construct: purchased Perkin Elmer Biosignal
Outline: as §2

Human melanocortin (MC5) = molecular target: T7, Human melanocortin (MC5) (Homo sapiens, UniProt P33032); assay: Radioligand binding, human melanocortin MC5 membranes, FlashPlate, [125I]-NDP-αMSH; settings: compound at 10 μM; [125I]-NDP-αMSH, human MC5 membranes
T7 construct: purchased Perkin Elmer Biosignal
Outline: as §1

Human Melanocortin (MC3) = molecular target: T8, Human Melanocortin (MC3) (Homo sapiens, UniProt P41968); assay: Radioligand binding, human melanocortin MC3 membranes, FlashPlate, [125I]-NDP-αMSH; settings: compound at 10 μM; [125I]-NDP-αMSH, human MC3 membranes
T8 construct: purchased Perkin Elmer Biosignal
Outline: as §1

[2] = molecular target: T9, Human melanin-concentrating hormone (MCH1) (Homo sapiens, UniProt Q99705); assay: Radioligand binding, human melanin-concentrating hormone MCH1 membranes, FlashPlate, [125I]-S36057; settings: compound at 10 μM; [125I]-S36057, human MCH1 membranes
T9 construct: purchased Perkin Elmer Biosignal
Outline: as §1

Human opioid (ORL1) = molecular target: T10, Human opioid (ORL1) (Homo sapiens, UniProt P41146); assay: Radioligand binding, human opioid ORL1 membranes, FlashPlate, [125I]-Nociceptin; settings: compound at 10 μM; [125I]-Nociceptin, human ORL1 membranes
T10 construct: purchased Perkin Elmer Biosignal
Outline: as §1

Human μ-opioid (MOP) = molecular target: T11, Human μ-opioid (MOP) (Homo sapiens, UniProt P35372); assay: Radioligand binding, human μ-opioid (MOP) membranes, FlashPlate, [3H]-Naloxone; settings: compound at 10 μM; [3H]-Naloxone, human MOP membranes
T11 construct: purchased Perkin Elmer Biosignal
Outline: as §1

T7 sequence (P33032 whole entry): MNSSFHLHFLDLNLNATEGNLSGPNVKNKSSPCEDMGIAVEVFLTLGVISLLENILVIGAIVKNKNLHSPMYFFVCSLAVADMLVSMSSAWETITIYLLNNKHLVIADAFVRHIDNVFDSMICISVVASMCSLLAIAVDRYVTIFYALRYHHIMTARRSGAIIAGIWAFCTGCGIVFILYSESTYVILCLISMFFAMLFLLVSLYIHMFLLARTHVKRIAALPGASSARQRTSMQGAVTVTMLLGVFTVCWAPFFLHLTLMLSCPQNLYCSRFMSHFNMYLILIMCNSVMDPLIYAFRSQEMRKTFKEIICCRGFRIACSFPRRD
T1 sequence (P32245 whole entry): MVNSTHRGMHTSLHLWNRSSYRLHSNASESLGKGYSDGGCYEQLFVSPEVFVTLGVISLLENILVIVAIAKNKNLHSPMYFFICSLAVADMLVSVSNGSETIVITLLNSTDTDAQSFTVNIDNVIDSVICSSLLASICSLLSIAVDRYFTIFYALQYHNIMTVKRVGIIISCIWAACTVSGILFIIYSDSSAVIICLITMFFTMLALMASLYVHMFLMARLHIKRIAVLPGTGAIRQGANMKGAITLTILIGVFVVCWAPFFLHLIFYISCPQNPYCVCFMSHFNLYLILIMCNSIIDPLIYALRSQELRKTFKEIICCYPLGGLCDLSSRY
T8 sequence (P41968 whole entry): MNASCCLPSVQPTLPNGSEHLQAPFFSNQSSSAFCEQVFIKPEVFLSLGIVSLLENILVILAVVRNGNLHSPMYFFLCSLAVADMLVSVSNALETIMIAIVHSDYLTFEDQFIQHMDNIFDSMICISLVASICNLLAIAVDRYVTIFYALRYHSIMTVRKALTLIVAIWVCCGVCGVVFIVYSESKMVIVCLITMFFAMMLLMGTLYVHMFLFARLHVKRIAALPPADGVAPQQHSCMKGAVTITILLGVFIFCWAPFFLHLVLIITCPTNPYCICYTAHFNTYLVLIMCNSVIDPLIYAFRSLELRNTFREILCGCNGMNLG
T4 sequence (P41143 whole entry): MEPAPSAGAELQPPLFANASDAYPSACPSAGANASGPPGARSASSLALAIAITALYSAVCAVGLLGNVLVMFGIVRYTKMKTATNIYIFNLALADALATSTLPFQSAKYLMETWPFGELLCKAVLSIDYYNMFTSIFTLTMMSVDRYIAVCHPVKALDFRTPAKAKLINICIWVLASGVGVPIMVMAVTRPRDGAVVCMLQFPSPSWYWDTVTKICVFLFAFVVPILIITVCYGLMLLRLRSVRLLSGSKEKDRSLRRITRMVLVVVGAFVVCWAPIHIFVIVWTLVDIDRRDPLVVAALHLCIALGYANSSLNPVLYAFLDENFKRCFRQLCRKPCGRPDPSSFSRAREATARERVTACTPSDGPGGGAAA
T10 sequence (P41146 whole entry): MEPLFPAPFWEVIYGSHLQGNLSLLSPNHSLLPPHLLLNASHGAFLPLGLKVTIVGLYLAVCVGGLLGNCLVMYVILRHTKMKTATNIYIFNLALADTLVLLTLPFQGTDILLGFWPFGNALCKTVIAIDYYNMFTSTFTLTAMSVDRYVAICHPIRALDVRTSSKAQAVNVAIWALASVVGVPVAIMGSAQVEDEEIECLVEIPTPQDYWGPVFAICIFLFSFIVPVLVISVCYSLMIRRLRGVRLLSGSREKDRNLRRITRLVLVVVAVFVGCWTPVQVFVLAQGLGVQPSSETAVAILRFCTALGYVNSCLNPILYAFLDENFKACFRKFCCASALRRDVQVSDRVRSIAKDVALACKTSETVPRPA
T3 sequence (P25103 whole entry): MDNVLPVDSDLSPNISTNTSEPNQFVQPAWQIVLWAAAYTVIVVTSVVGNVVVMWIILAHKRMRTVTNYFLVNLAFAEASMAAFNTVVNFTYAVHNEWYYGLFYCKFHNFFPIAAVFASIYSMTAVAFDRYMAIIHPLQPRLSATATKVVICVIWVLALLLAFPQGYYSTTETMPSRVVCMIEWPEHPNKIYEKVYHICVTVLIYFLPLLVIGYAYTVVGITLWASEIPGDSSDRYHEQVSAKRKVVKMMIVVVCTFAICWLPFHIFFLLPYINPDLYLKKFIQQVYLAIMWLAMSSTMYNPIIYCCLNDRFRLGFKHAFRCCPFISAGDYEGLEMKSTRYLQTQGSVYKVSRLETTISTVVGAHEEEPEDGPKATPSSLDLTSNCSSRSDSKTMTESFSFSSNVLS
T6 sequence (P41145 whole entry): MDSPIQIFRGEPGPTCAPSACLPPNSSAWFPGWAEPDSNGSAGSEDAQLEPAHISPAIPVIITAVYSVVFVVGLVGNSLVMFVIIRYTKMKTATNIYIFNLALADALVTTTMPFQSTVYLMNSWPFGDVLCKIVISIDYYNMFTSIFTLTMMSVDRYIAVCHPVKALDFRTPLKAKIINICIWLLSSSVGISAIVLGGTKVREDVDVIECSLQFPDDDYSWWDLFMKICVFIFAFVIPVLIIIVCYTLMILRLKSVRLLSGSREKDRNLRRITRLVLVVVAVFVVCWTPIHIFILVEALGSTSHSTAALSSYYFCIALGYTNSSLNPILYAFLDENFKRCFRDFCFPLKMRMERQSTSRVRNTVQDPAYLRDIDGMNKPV
T9 sequence (Q99705 whole entry): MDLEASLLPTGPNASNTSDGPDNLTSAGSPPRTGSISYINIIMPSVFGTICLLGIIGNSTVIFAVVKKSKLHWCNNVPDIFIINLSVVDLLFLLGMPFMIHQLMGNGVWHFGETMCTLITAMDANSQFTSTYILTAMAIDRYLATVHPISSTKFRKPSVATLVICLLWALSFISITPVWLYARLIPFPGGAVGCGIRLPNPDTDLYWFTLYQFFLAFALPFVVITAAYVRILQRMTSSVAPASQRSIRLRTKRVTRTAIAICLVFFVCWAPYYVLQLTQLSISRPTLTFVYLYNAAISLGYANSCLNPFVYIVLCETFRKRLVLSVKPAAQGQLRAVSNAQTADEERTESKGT
T11 sequence (P35372 whole entry): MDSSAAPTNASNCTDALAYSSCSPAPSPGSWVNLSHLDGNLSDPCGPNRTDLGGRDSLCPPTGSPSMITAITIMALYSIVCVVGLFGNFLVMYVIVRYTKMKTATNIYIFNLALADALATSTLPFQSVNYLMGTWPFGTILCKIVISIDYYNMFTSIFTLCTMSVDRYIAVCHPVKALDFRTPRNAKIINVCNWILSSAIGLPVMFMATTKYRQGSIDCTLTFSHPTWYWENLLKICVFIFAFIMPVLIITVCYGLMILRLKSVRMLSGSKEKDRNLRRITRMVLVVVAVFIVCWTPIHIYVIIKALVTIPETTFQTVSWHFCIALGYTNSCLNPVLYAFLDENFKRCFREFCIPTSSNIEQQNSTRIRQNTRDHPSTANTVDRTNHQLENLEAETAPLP

Structure (SMILES)	A4: inhibition of radioligand binding (Human Melanocortin (MC4))	A11: inhibition of radioligand binding (Mouse urotensin (mUR2))	A8: inhibition of radioligand binding (Human neurokinin (NK1))	A1: inhibition of radioligand binding (Human δ-opioid (DOP))	A9: inhibition of radioligand binding [1]	A2: inhibition of radioligand binding (Human κ-Opioid (KOP))	A5: inhibition of radioligand binding (Human melanocortin (MC5))	A3: inhibition of radioligand binding (Human Melanocortin (MC3))	A6: inhibition of radioligand binding [2]	A10: inhibition of radioligand binding (Human opioid (ORL1))	A7: inhibition of radioligand binding (Human μ-opioid (MOP))
N=C(N)NCC(=O)NC1C(OCc2ccc(-c3ccccc3)cc2)OC(COCc2ccccc2)C(O)C1OCc1ccc2ccccc2c1 (stereo not shown) [compound 403]	+ (“+” indicates greater than 50% inhibition at 10 μM)	− (“−” indicates less than 50% inhibition at 10 μM)	+ (“+” indicates greater than 50% inhibition at 10 μM)	− (“−” indicates less than 50% inhibition at 10 μM)	− (“−” indicates less than 50% inhibition at 10 μM)	− (“−” indicates less than 50% inhibition at 10 μM)	+ (“+” indicates greater than 50% inhibition at 10 μM)	+ (“+” indicates greater than 50% inhibition at 10 μM)	+ (“+” indicates greater than 50% inhibition at 10 μM)	+ (“+” indicates greater than 50% inhibition at 10 μM)	− (“−” indicates less than 50% inhibition at 10 μM)
N=C(N)NCC(=O)NC1C(OCc2ccc(-c3ccccc3)cc2)OC(COCc2ccc(Cl)cc2)C(O)C1OCc1ccc2ccccc2c1 (stereo not shown) [compound 404]	+ (“+” indicates greater than 50% inhibition at 10 μM)	− (“−” indicates less than 50% inhibition at 10 μM)	+ (“+” indicates greater than 50% inhibition at 10 μM)	− (“−” indicates less than 50% inhibition at 10 μM)	− (“−” indicates less than 50% inhibition at 10 μM)	− (“−” indicates less than 50% inhibition at 10 μM)	+ (“+” indicates greater than 50% inhibition at 10 μM)	+ (“+” indicates greater than 50% inhibition at 10 μM)	− (“−” indicates less than 50% inhibition at 10 μM)	+ (“+” indicates greater than 50% inhibition at 10 μM)	− (“−” indicates less than 50% inhibition at 10 μM)
N=C(N)NCC(=O)NC1C(OCc2ccc(-c3ccccc3)cc2)OC(COCc2ccc3ccccc3c2)C(O)C1OCc1ccc(-c2ccccc2)cc1 (stereo not shown) [compound 405]	− (“−” indicates less than 50% inhibition at 10 μM)	− (“−” indicates less than 50% inhibition at 10 μM)	+ (“+” indicates greater than 50% inhibition at 10 μM)	− (“−” indicates less than 50% inhibition at 10 μM)	− (“−” indicates less than 50% inhibition at 10 μM)	− (“−” indicates less than 50% inhibition at 10 μM)	+ (“+” indicates greater than 50% inhibition at 10 μM)	+ (“+” indicates greater than 50% inhibition at 10 μM)	− (“−” indicates less than 50% inhibition at 10 μM)	− (“−” indicates less than 50% inhibition at 10 μM)	− (“−” indicates less than 50% inhibition at 10 μM)
N=C(N)NCC(=O)NC1C(OCc2ccc(-c3ccccc3)cc2)OC(COCc2ccccc2)C(O)C1OCc1ccc(-c2ccccc2)cc1 (stereo not shown) [compound 406]	+ (“+” indicates greater than 50% inhibition at 10 μM)	− (“−” indicates less than 50% inhibition at 10 μM)	+ (“+” indicates greater than 50% inhibition at 10 μM)	− (“−” indicates less than 50% inhibition at 10 μM)	− (“−” indicates less than 50% inhibition at 10 μM)	− (“−” indicates less than 50% inhibition at 10 μM)	+ (“+” indicates greater than 50% inhibition at 10 μM)	+ (“+” indicates greater than 50% inhibition at 10 μM)	− (“−” indicates less than 50% inhibition at 10 μM)	+ (“+” indicates greater than 50% inhibition at 10 μM)	− (“−” indicates less than 50% inhibition at 10 μM)
N=C(N)NCC(=O)NC1C(OCc2ccc(-c3ccccc3)cc2)OC(COCc2ccc(Cl)cc2)C(O)C1OCc1ccc(-c2ccccc2)cc1 (stereo not shown) [compound 407]	+ (“+” indicates greater than 50% inhibition at 10 μM)	− (“−” indicates less than 50% inhibition at 10 μM)	+ (“+” indicates greater than 50% inhibition at 10 μM)	− (“−” indicates less than 50% inhibition at 10 μM)	− (“−” indicates less than 50% inhibition at 10 μM)	− (“−” indicates less than 50% inhibition at 10 μM)	+ (“+” indicates greater than 50% inhibition at 10 μM)	+ (“+” indicates greater than 50% inhibition at 10 μM)	+ (“+” indicates greater than 50% inhibition at 10 μM)	+ (“+” indicates greater than 50% inhibition at 10 μM)	− (“−” indicates less than 50% inhibition at 10 μM)
